Test results: PubChem BioAssay AID588688 (Southern Research Specialized Biocontainment Screening …, 2011)
Active and inactive are the calls of the source.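 The calls were made as follows: active = inhibition of 30% or more at any tested concentration; inactive = the rest.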

Target: M17 leucyl aminopeptidase (Plasmodium falciparum 3D7)
Assay: Inhibition of P. falciparum M17 aminopeptidase – biochemical, QFRET, dose response (AID 588688)
Conditions: recombinant PfM17LAP, H-Leu-NHMec fluorogenic substrate cleavage

| Structure (SMILES) | IC50 [µM] |
| --- | --- |
| COC(=O)c1c(NC(=O)C2CC=CCC2C(=O)O)sc(C)c1-c1ccc(C)cc1 (configuration not stated) | 5.13 |
| O=C(Cc1ccc2ccccc2c1)NO | 0.79 |
| O=C(Cc1cccc2ccccc12)NO | 6.11 |
| CC1=C(C)CC(C(=O)Nc2nc(-c3cc(C)ccc3C)c(C)s2)C(C(=O)O)C1 (configuration not stated) | 58.8 |
| COc1ccc(-c2nnc(NC(=O)C3CC(C)=C(C)CC3C(=O)O)s2)cc1 (configuration not stated) | 96.9 |
| COc1ccc(OCCC(=O)NO)cc1 | 65.6 |
| CC1=C(C)CC(C(=O)Nc2ccc(Oc3ccc(Cl)cc3)cc2)C(C(=O)O)C1 (configuration not stated) | 46.6 |

The remaining lines, values ahead:

| IC50 [µM] | Structure (SMILES) |
| --- | --- |
| 17.1 | Cc1cc(SCC(=O)Nc2ccccc2C(=O)O)nc2ccccc12 |
| 23.6 | O=C(CSc1nccc(=O)[nH]1)Nc1ccc(Oc2ccccc2)cc1 |
| 25.6 | COc1cc(NC(=O)CSc2ccccc2)c(C(=O)O)cc1OC |
| 33.5 | Cc1ccc(NC(=O)CSc2nc(O)cc(=O)n2Cc2ccccc2)cc1 |
| 17.5 | O=C(CSc1nccc(=O)[nH]1)Nc1ccc(N2CCOCC2)cc1 |
| 101 | O=C(CSc1nc(O)cc(=O)[nH]1)Nc1ccccc1 |
| 10.8 | CCn1c2ccccc2c2cc(NC(=O)CSc3nc(C)cc(=O)[nH]3)ccc21 |

Same assay, conditions: recombinant PfM17LAP, H-Leu-NHMec fluorogenic substrate cleavage; at 100 µM (top of the series)

| Structure (SMILES) | inhibition |
| --- | --- |
| CC(C)C[C@H](N)C(=O)NO | inactive |
| COC(=O)c1ccccc1NC(=O)c1ccc2c(Cl)c3c(nc2c1)CCC3 | inactive |
| COC(=O)c1c(NC(=O)c2ccccc2C(=O)O)sc2c1CCCC2 | inactive |
| CC1CCc2sc(C(=O)Nc3cccc4c3C(=O)NC4)cc2C1 (configuration not stated) | inactive |
| NC(N)=NCCC[C@H](N)C(=O)NO | inactive |
| CCC(C)(C)C1CCc2c(sc(NC(=O)C3CC(C)=C(C)CC3C(=O)O)c2C(=O)OC)C1 (configuration not stated) | inactive |
| N[C@@H](Cc1c[nH]c2ccccc12)C(=O)NO | inactive |
| O=C(O)c1ccccc1C(=O)Nc1nc2c(s1)CCCC2 | inactive |
| COC(=O)c1cc(OC)c(OC)cc1NC(=O)c1sc2nc(C)ccc2c1N | inactive |

Next, values leading:

| inhibition | Structure (SMILES) |
| --- | --- |
| inactive | COc1cc(NC(=O)c2ccc(-c3ccccc3)cc2)c(C(=O)O)cc1OC |
| inactive | O=C(Nc1ccc(Cl)cc1)Nc1ccccc1C(=O)O |
| inactive | O=C(CSc1ccccc1)Nc1cccc2c1C(=O)NC2=O |
| inactive | COC(=O)c1ccccc1NC(=O)c1cc2cc3ccc(C)cc3nc2s1 |
